ChEMBL document CHEMBL4028802, “DILIrank: the largest reference drug list ranked by the risk for developing drug-induced liver injury in humans” (Drug Discov Today, 2016)
Non-standard residues stand in square brackets, D forms with d. Residues, ends and D or L forms follow the SMILES beside them. *: point of attachment. dPhe(4-NHCONH2) = NC(=O)Nc1ccc(C[C@@H](N)C(=O)O)cc1; Dihydroorotyl(S) = O=C1C[C@@H](C(=O)*)NC(=O)N1; dPhe(4-Cl) = N[C@H](Cc1ccc(Cl)cc1)C(=O)O; Phe(4-NH2) = Nc1ccc(C[C@H](N)C(=O)O)cc1; d2Nal = N[C@H](Cc1ccc2ccccc2c1)C(=O)O; Lys(iPr) = CC(C)NCCCC[C@H](N)C(=O)O; d3Pal = N[C@H](Cc1cccnc1)C(=O)O

Key:
Homo sapiens [1] = species: Homo sapiens; assay: Liver toxicity in human assessed as induction of drug-induced liver injury by measuring verified drug-induced liver injury concern status
Homo sapiens [2] = species: Homo sapiens; assay: Liver toxicity in human assessed as induction of drug-induced liver injury by measuring severity class index
Throughout, for DILI severity class: key of the grades not given here.

Row | SMILES | DILI_Concern (Homo sapiens [1]) | DILI_severity_class (Homo sapiens [2])
1 | CC(=O)N(O)CCCCCNC(=O)CCC(=O)N(O)CCCCCNC(=O)CCC(=O)N(O)CCCCCN [DEFEROXAMINE] | Less-Dili-Concern | 0
2 | CC(=O)N[C@H](Cc1ccc2ccccc2c1)C(=O)N[C@H](Cc1ccc(Cl)cc1)C(=O)N[C@H](Cc1cccnc1)C(=O)N[C@@H](CO)C(=O)N[C@@H](Cc1ccc(NC(=O)[C@@H]2CC(=O)NC(=O)N2)cc1)C(=O)N[C@H](Cc1ccc(NC(N)=O)cc1)C(=O)N[C@@H](CC(C)C)C(=O)N[C@@H](CCCCNC(C)C)C(=O)N1CCC[C@H]1C(=O)N[C@H](C)C(N)=O [DEGARELIX] (Ac-[d2Nal][dPhe(4-Cl)][d3Pal]S[Phe(4-NH2)](Dihydroorotyl(S))[dPhe(4-NHCONH2)]L[Lys(iPr)]P[dA]-NH2) | Ambiguous-Dili-Concern | 3
3 | CC(C)Nc1cccnc1N1CCN(C(=O)c2cc3cc(NS(C)(=O)=O)ccc3[nH]2)CC1 [DELAVIRDINE] | Ambiguous-Dili-Concern | 5
4 | CN(C)[C@@H]1C(O)=C(C(N)=O)C(=O)[C@@]2(O)C(O)=C3C(=O)c4c(O)ccc(Cl)c4[C@@H](O)[C@H]3C[C@@H]12 [DEMECLOCYCLINE] | Ambiguous-Dili-Concern | 3
5 | CNCCCN1c2ccccc2CCc2ccccc21 [DESIPRAMINE] | Ambiguous-Dili-Concern | 3
6 | Clc1ccc2c(c1)CCc1cccnc1C2=C1CCNCC1 [DESLORATADINE] | Less-Dili-Concern | 3
7 | NC(=O)CC[C@@H]1NC(=O)[C@H](Cc2ccccc2)NC(=O)[C@H](Cc2ccc(O)cc2)NC(=O)CCSSC[C@@H](C(=O)N2CCC[C@H]2C(=O)N[C@H](CCCN=C(N)N)C(=O)NCC(N)=O)NC(=O)[C@H](CC(N)=O)NC1=O [DESMOPRESSIN] | Ambiguous-Dili-Concern | 3
8 | CN(C)CC(c1ccc(O)cc1)C1(O)CCCCC1 (stereo unspecified) [DESVENLAFAXINE] | Less-Dili-Concern | 3
9 | C[C@@H]1C[C@H]2[C@@H]3CCC4=CC(=O)C=C[C@]4(C)[C@@]3(F)[C@@H](O)C[C@]2(C)[C@@]1(O)C(=O)CO [DEXAMETHASONE] | Ambiguous-Dili-Concern | 3
10 | CN(C)CC[C@@H](c1ccc(Br)cc1)c1ccccn1 [DEXBROMPHENIRAMINE] | No-Dili-Concern | 0
11 | CN(C)CC[C@@H](c1ccc(Cl)cc1)c1ccccn1 [DEXCHLORPHENIRAMINE] | No-Dili-Concern | 0
12 | Cc1c(OCC(F)(F)F)ccnc1C[S@@+]([O-])c1nc2ccccc2[nH]1 [DEXLANSOPRAZOLE] | Less-Dili-Concern | 4
13 | Cc1cccc([C@H](C)c2cnc[nH]2)c1C [DEXMEDETOMIDINE] | Ambiguous-Dili-Concern | 4
14 | COC(=O)[C@H](c1ccccc1)[C@H]1CCCCN1 [DEXMETHYLPHENIDATE] | Less-Dili-Concern | 7
15 | CC(C)(CO)[C@@H](O)C(=O)NCCCO [DEXPANTHENOL] | No-Dili-Concern | 0
16 | C[C@@H](CN1CC(=O)NC(=O)C1)N1CC(=O)NC(=O)C1 [DEXRAZOXANE] | Ambiguous-Dili-Concern | 4
17 | C[C@H](N)Cc1ccccc1 [DEXTROAMPHETAMINE] | No-Dili-Concern | 0
18 | COc1ccc2c(c1)[C@]13CCCC[C@@H]1[C@H](C2)N(C)CC3 [DEXTROMETHORPHAN] | No-Dili-Concern | 0
19 | OC[C@H]1OC(O)[C@H](O)[C@@H](O)[C@@H]1O (stereo partly specified) [DEXTROSE] | No-Dili-Concern | 0
20 | CC(=O)Nc1c(I)c(NC(C)=O)c(I)c(C(=O)O)c1I [DIATRIZOIC ACID] | No-Dili-Concern | 0
21 | CN1C(=O)CN=C(c2ccccc2)c2cc(Cl)ccc21 [DIAZEPAM] | Ambiguous-Dili-Concern | 4
22 | CC1=NS(=O)(=O)c2cc(Cl)ccc2N1 [DIAZOXIDE] | Ambiguous-Dili-Concern | 3
23 | NS(=O)(=O)c1cc(Cl)c(Cl)c(S(N)(=O)=O)c1 [DICHLORPHENAMIDE] | No-Dili-Concern | 0
24 | O=C(O)Cc1ccccc1Nc1c(Cl)cccc1Cl [DICLOFENAC] | Most-Dili-Concern | 8

Row | SMILES | DILI_Concern (Homo sapiens [1]) | DILI_severity_class (Homo sapiens [2])
25 | Cc1onc(-c2c(Cl)cccc2Cl)c1C(=O)N[C@@H]1C(=O)N2[C@@H]1SC(C)(C)[C@@H]2C(=O)O [DICLOXACILLIN] | Less-Dili-Concern | 3
26 | CCN(CC)CCOC(=O)C1(C2CCCCC2)CCCCC1 [DICYCLOMINE] | No-Dili-Concern | 0
27 | O=c1[nH]cnc2c1ncn2[C@H]1CC[C@@H](CO)O1 [DIDANOSINE] | Most-Dili-Concern | 8
28 | CCN(CC)C(C)C(=O)c1ccccc1 (stereo unspecified) [DIETHYLPROPION] | No-Dili-Concern | 0
29 | O=C(O)c1cc(-c2ccc(F)cc2F)ccc1O [DIFLUNISAL] | Most-Dili-Concern | 8
30 | C[C@H]1O[C@@H](O[C@H]2[C@@H](O)C[C@H](O[C@H]3[C@@H](O)C[C@H](O[C@H]4CC[C@@]5(C)[C@H](CC[C@@H]6[C@@H]5C[C@@H](O)[C@]5(C)[C@@H](C7=CC(=O)OC7)CC[C@]65O)C4)O[C@@H]3C)O[C@@H]2C)C[C@H](O)[C@@H]1O [DIGOXIN] | No-Dili-Concern | 0
31 | CN1C[C@H](C(=O)N[C@]2(C)O[C@@]3(O)[C@@H]4CCCN4C(=O)[C@H](Cc4ccccc4)N3C2=O)C[C@@H]2c3cccc4[nH]cc(c34)C[C@H]21 [DIHYDROERGOTAMINE] | No-Dili-Concern | 0
32 | COc1ccc([C@@H]2Sc3ccccc3N(CCN(C)C)C(=O)[C@@H]2OC(C)=O)cc1 [DILTIAZEM] | Most-Dili-Concern | 4
33 | CN(C)CCOC(c1ccccc1)c1ccccc1.Cn1c(=O)c2[nH]c(Cl)nc2n(C)c1=O [DIMENHYDRINATE] | No-Dili-Concern | 0
34 | OCC(S)CS (stereo unspecified) [DIMERCAPROL] | No-Dili-Concern | 0
35 | CN(C)CCOC(c1ccccc1)c1ccccc1 [DIPHENHYDRAMINE] | No-Dili-Concern | 0
36 | CCOC(=O)C1(c2ccccc2)CCN(CCC(C#N)(c2ccccc2)c2ccccc2)CC1 [DIPHENOXYLATE] | No-Dili-Concern | 0
37 | CC(C)N(CCC(C(N)=O)(c1ccccc1)c1ccccn1)C(C)C (stereo unspecified) [DISOPYRAMIDE] | Less-Dili-Concern | 2
38 | CC(CCc1ccc(O)cc1)NCCc1ccc(O)c(O)c1 (stereo unspecified) [DOBUTAMINE] | No-Dili-Concern | 0
39 | CC(=O)O[C@@]12CO[C@@H]1C[C@H](O)[C@@]1(C)C(=O)[C@H](O)C3=C(C)[C@@H](OC(=O)[C@H](O)[C@@H](NC(=O)OC(C)(C)C)c4ccccc4)C[C@@](O)([C@@H](OC(=O)c4ccccc4)[C@H]21)C3(C)C [DOCETAXEL ANHYDROUS] | Less-Dili-Concern | 3
40 | CN(CCOc1ccc(NS(C)(=O)=O)cc1)CCc1ccc(NS(C)(=O)=O)cc1 [DOFETILIDE] | No-Dili-Concern | 0
41 | O=C(O[C@@H]1C[C@@H]2C[C@H]3C[C@H](C1)N2CC3=O)c1c[nH]c2ccccc12 [DOLASETRON] | Ambiguous-Dili-Concern | 3
42 | COc1cc2c(cc1OC)C(=O)C(CC1CCN(Cc3ccccc3)CC1)C2 (stereo unspecified) [DONEPEZIL] | Less-Dili-Concern | 3
43 | NCCc1ccc(O)c(O)c1 [DOPAMINE] | No-Dili-Concern | 0
44 | C[C@@H](O)[C@H]1C(=O)N2C(C(=O)O)=C(S[C@@H]3CN[C@H](CNS(N)(=O)=O)C3)[C@H](C)[C@H]12 [DORIPENEM] | Ambiguous-Dili-Concern | 3
45 | CCN1CC(CCN2CCOCC2)C(c2ccccc2)(c2ccccc2)C1=O (stereo unspecified) [DOXAPRAM] | No-Dili-Concern | 0
46 | COc1cc2nc(N3CCN(C(=O)C4COc5ccccc5O4)CC3)nc(N)c2cc1OC (stereo unspecified) [DOXAZOSIN] | Ambiguous-Dili-Concern | 3
47 | CN(C)CCC=C1c2ccccc2COc2ccccc21 [DOXEPIN] | Less-Dili-Concern | 4
48 | C=C1/C(=C\C=C2/CCC[C@]3(C)[C@@H]([C@H](C)/C=C/[C@H](C)C(C)C)CC[C@@H]23)C[C@@H](O)C[C@@H]1O [DOXERCALCIFEROL] | Ambiguous-Dili-Concern | 3
